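The compound was tested at five concentrations on cells cultured in 96-well plates, with a 48-hour exposure period. TGI: concentration producing complete growth inhibition.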
Legend:
Experiment in all cases: DTP human tumour cell line panel, 48 h
786-0 renal = system: 786-0 renal
A498 renal = system: A498 renal
ACHN renal = system: ACHN renal
CAKI-1 renal = system: CAKI-1 renal
CCRF-CEM leukemia = system: CCRF-CEM leukemia
DLD-1 colon = system: DLD-1 colon
DMS 273 small cell lung = system: DMS 273 small cell lung
EKVX NSCLC = system: EKVX NSCLC
HCC-2998 colon = system: HCC-2998 colon
HCT-15 colon = system: HCT-15 colon
HL-60(TB) leukemia = system: HL-60(TB) leukemia
HOP-18 NSCLC = system: HOP-18 NSCLC
HOP-62 NSCLC = system: HOP-62 NSCLC
HOP-92 NSCLC = system: HOP-92 NSCLC
HT29 colon = system: HT29 colon
IGROV1 ovarian = system: IGROV1 ovarian
K-562 leukemia = system: K-562 leukemia
KM20L2 colon = system: KM20L2 colon
LXFL 529 NSCLC = system: LXFL 529 NSCLC
M14 melanoma = system: M14 melanoma
MALME-3M melanoma = system: MALME-3M melanoma
MOLT-4 leukemia = system: MOLT-4 leukemia
NCI-H23 lung = system: NCI-H23 lung
NCI-H460 lung = system: NCI-H460 lung
OVCAR-3 ovarian = system: OVCAR-3 ovarian
OVCAR-5 ovarian = system: OVCAR-5 ovarian
RPMI-8226 leukemia = system: RPMI-8226 leukemia
SF-268 CNS = system: SF-268 CNS
SF-295 CNS = system: SF-295 CNS
SF-539 CNS = system: SF-539 CNS
SK-MEL-2 melanoma = system: SK-MEL-2 melanoma
SK-MEL-28 melanoma = system: SK-MEL-28 melanoma
SK-MEL-5 melanoma = system: SK-MEL-5 melanoma
SK-OV-3 ovarian = system: SK-OV-3 ovarian
SN12C renal = system: SN12C renal
SNB-19 CNS = system: SNB-19 CNS
SNB-78 CNS = system: SNB-78 CNS
SR leukemia = system: SR leukemia
TK-10 renal = system: TK-10 renal
U251 CNS = system: U251 CNS
UACC-257 melanoma = system: UACC-257 melanoma
UACC-62 melanoma = system: UACC-62 melanoma
UO-31 renal = system: UO-31 renal
A549 NSCLC = system: A549 NSCLC
BT-549 breast = system: BT-549 breast
COLO 205 colon = system: COLO 205 colon
DU-145 prostate = system: DU-145 prostate
HCT-116 colon = system: HCT-116 colon
HS 578T breast = system: HS 578T breast
KM12 colon = system: KM12 colon
LOX IMVI melanoma = system: LOX IMVI melanoma
MCF7 breast = system: MCF7 breast
MDA-MB-231 breast = system: MDA-MB-231 breast
MDA-MB-435 = system: MDA-MB-435
MDA-N = system: MDA-N
NCI-H226 lung = system: NCI-H226 lung
NCI-H522 lung = system: NCI-H522 lung
NCI/ADR-RES ovarian = system: NCI/ADR-RES ovarian
OVCAR-4 ovarian = system: OVCAR-4 ovarian
OVCAR-8 ovarian = system: OVCAR-8 ovarian
PC-3 prostate = system: PC-3 prostate
RXF 393 renal = system: RXF 393 renal
SNB-75 CNS = system: SNB-75 CNS
SW-620 colon = system: SW-620 colon
T-47D breast = system: T-47D breast

Compound: CCOC(=O)CC[C@@H](NC(=O)c1ccc(N[C@@H]2c3cc4c(cc3C(c3cc(OC)c(O)c(OC)c3)C3C(=O)OC[C@@H]32)OCO4)cc1)C(=O)OCC (some centres not stated)
- TGI (786-0 renal): > 10 µM
- TGI (A498 renal): 66.8 nM
- TGI (ACHN renal): 37.9 nM
- TGI (CAKI-1 renal): 53.9 nM
- TGI (CCRF-CEM leukemia): > 10 µM
- TGI (DLD-1 colon): 406 nM
- TGI (DMS 273 small cell lung): 114 nM
- TGI (EKVX NSCLC): 79.9 nM
- TGI (HCC-2998 colon): 318 nM
- TGI (HCT-15 colon): 233 nM
- TGI (HL-60(TB) leukemia): 50 nM
- TGI (HOP-18 NSCLC): > 10 µM
- TGI (HOP-62 NSCLC): 42.4 nM
- TGI (HOP-92 NSCLC): 80.8 nM
- TGI (HT29 colon): 751 nM
- TGI (IGROV1 ovarian): 320 nM
- TGI (K-562 leukemia): > 10 µM
- TGI (KM20L2 colon): 272 nM
- TGI (LXFL 529 NSCLC): > 10 µM
- TGI (M14 melanoma): > 10 µM
- TGI (MALME-3M melanoma): 236 nM
- TGI (MOLT-4 leukemia): > 10 µM
- TGI (NCI-H23 lung): 42.4 nM
- TGI (NCI-H460 lung): 17.4 nM
- TGI (OVCAR-3 ovarian): 370 nM
- TGI (OVCAR-5 ovarian): 404 nM
- TGI (RPMI-8226 leukemia): > 10 µM
- TGI (SF-268 CNS): 68.6 nM
- TGI (SF-295 CNS): 49.7 nM
- TGI (SF-539 CNS): 47.8 nM
- TGI (SK-MEL-2 melanoma): 235 nM
- TGI (SK-MEL-28 melanoma): 530 nM
- TGI (SK-MEL-5 melanoma): 144 nM
- TGI (SK-OV-3 ovarian): 65.6 nM
- TGI (SN12C renal): 89.7 nM
- TGI (SNB-19 CNS): 116 nM
- TGI (SNB-78 CNS): > 10 µM
- TGI (SR leukemia): > 10 µM
- TGI (TK-10 renal): 375 nM
- TGI (U251 CNS): 123 nM
- TGI (UACC-257 melanoma): 724 nM
- TGI (UACC-62 melanoma): 55.7 nM
- TGI (UO-31 renal): 194 nM

Compound: Nc1nc(SCc2ccccc2)c2ncn(Cc3ccccc3)c2n1
- TGI (786-0 renal): > 100 µM
- TGI (A498 renal): > 65900 nM
- TGI (A549 NSCLC): > 100 µM
- TGI (ACHN renal): > 100000 nM
- TGI (BT-549 breast): > 100 µM
- TGI (CAKI-1 renal): > 86500 nM
- TGI (CCRF-CEM leukemia): > 100 µM
- TGI (COLO 205 colon): > 100 µM
- TGI (DU-145 prostate): > 100 µM
- TGI (EKVX NSCLC): > 100000 nM
- TGI (HCC-2998 colon): > 100000 nM
- TGI (HCT-116 colon): > 100 µM
- TGI (HCT-15 colon): > 100000 nM
- TGI (HL-60(TB) leukemia): > 100000 nM
- TGI (HOP-62 NSCLC): > 100000 nM
- TGI (HOP-92 NSCLC): > 100000 nM
- TGI (HS 578T breast): > 100 µM
- TGI (HT29 colon): > 100000 nM
- TGI (IGROV1 ovarian): > 100000 nM
- TGI (K-562 leukemia): > 100 µM
- TGI (KM12 colon): > 100 µM
- TGI (LOX IMVI melanoma): > 100 µM
- TGI (M14 melanoma): > 100 µM
- TGI (MALME-3M melanoma): > 89100 nM
- TGI (MCF7 breast): > 100 µM
- TGI (MDA-MB-231 breast): > 100 µM
- TGI (MDA-MB-435): > 100 µM
- TGI (MDA-N): > 100 µM
- TGI (MOLT-4 leukemia): > 100 µM
- TGI (NCI-H226 lung): > 100 µM
- TGI (NCI-H23 lung): > 100000 nM
- TGI (NCI-H460 lung): > 100000 nM
- TGI (NCI-H522 lung): > 100 µM
- TGI (NCI/ADR-RES ovarian): > 100 µM
- TGI (OVCAR-3 ovarian): > 100000 nM
- TGI (OVCAR-4 ovarian): > 100 µM
- TGI (OVCAR-5 ovarian): > 100000 nM
- TGI (OVCAR-8 ovarian): > 100 µM
- TGI (PC-3 prostate): > 100 µM
- TGI (RPMI-8226 leukemia): > 100 µM
- TGI (RXF 393 renal): > 100 µM
- TGI (SF-268 CNS): > 100000 nM
- TGI (SF-295 CNS): > 100000 nM
- TGI (SF-539 CNS): > 100000 nM
- TGI (SK-MEL-2 melanoma): > 100000 nM
- TGI (SK-MEL-28 melanoma): > 100000 nM
- TGI (SK-MEL-5 melanoma): > 100000 nM
- TGI (SK-OV-3 ovarian): > 100000 nM
- TGI (SN12C renal): > 100000 nM
- TGI (SNB-19 CNS): > 100000 nM
- TGI (SNB-75 CNS): > 100 µM
- TGI (SR leukemia): > 100 µM
- TGI (SW-620 colon): > 100 µM
- TGI (T-47D breast): > 100 µM
- TGI (TK-10 renal): > 100000 nM
- TGI (U251 CNS): > 100000 nM
- TGI (UACC-257 melanoma): > 100000 nM
- TGI (UACC-62 melanoma): > 100000 nM
- TGI (UO-31 renal): > 100000 nM
